The values below come from patent US4140707A, “Malonato platinum anti-tumor compounds” (priority 1977, dated 1979).

The data set relates to Sarcoma 180. The experiment in a line: Antitumor activity, solid Sarcoma 180 (Table I), T/C tumor weight ratio, sacrifice day 10. Format: in vivo, female Swiss white mice. On the procedure: The compounds of the invention were tested for anti-tumor activity using our standard screening tumor, solid sarcoma 180 tumer in female Swiss white mice, following standard protocols for this testing as set by the National Cancer Institute. (Cancer Chemotherapy Rep., 25(1962)).
For these tests an S 180 tumor taken from a sacrificed mouse was disected free of superfluous tissue and cut under sterile conditions into approximately 10 milligram size pieces. These tissue pieces were then implanted by trocar in the left axillary region, subcutaneously, in new mice. The mice were, on the average, approximately four weeks old and weighed 18-20 grams. Taking day 0 as the day of implant, the animals were sacrificed on day 10. The tumors were excised and weighed and the ratio of the weights of the tumors in mice in the treated animals to the control set of animals was obtained. This ratio, multiplied by 100, is given as the T/C ratio in Table I.
For the first set of tests the coordination compound was freshly dissolved in sterile distilled water and injected intraperitoneally on day 1 into each of the test mice. The volume of the injection was usually 1/2 ml. In some cases, in order to get an active dose into the animal where the chemical was not soluble in this amount of solvent, a fine dispersion was prepared of the dose needed for the test. Thus, some of our test results were obtained on animals where a slurry of the compound was injected. These are so noted in Table I below. In addition, for some of the compounds, there was injected about 1 ml of solution, either in one single injection, or in 2 injections given a few hours apart of 1/2 ml each. These injections were initially given in 4 different dose levels for each new compound with 6 mice in each dose level. The tests covered a dose range from a low ineffective dose, to an upper dose level which produced some deaths within the time period of the experiment.

The mark [1] stands for this setting: 20 mg/kg, single i.p. day 1, vehicle not noted.
[2] abbreviates: 40 mg/kg, single i.p. day 1, vehicle not noted.
Setting [3] is: 60 mg/kg, single i.p. day 1, vehicle not noted.
[4] abbreviates: 80 mg/kg, single i.p. day 1, vehicle not noted.
The mark [5] stands for this setting: 100 mg/kg, single i.p. day 1, vehicle not noted.
[6] abbreviates: 120 mg/kg, single i.p. day 1, vehicle not noted.
Where [7] appears, read: 160 mg/kg, single i.p. day 1, vehicle not noted.
Where [8] appears, read: 30 mg/kg, single i.p. day 1, solution in H2O.
The mark [9] stands for this setting: 40 mg/kg, single i.p. day 1, solution in H2O.
The mark [10] stands for this setting: 50 mg/kg, single i.p. day 1, solution in H2O.
Where [11] appears, read: 60 mg/kg, single i.p. day 1, solution in H2O.
Setting [12] is: 70 mg/kg, single i.p. day 1, solution in H2O.
[13] abbreviates: 80 mg/kg, single i.p. day 1, solution in H2O.
Where [14] appears, read: 90 mg/kg, single i.p. day 1, vehicle not noted.
[15] abbreviates: 110 mg/kg, single i.p. day 1, vehicle not noted.
Setting [16] is: 45 mg/kg, single i.p. day 1, vehicle not noted.
The mark [17] stands for this setting: 75 mg/kg, single i.p. day 1, vehicle not noted.
Where [18] appears, read: 140 mg/kg, single i.p. day 1, vehicle not noted.
The mark [19] stands for this setting: 180 mg/kg, single i.p. day 1, vehicle not noted.
[20] abbreviates: 90 mg/kg, single i.p. day 1, solution in H2O.

For the compound `N.N.O=C([O-])C1(C(=O)[O-])CCC1.[Pt+4]` [1,1-cyclobutanedicarboxylate diammineplatinum (II)], the “No. of Deaths” value under setting [1] was determined as 0; the “No. of Deaths” value under setting [2] is 0; the “No. of Deaths” value under setting [3] came to 0; the “No. of Deaths” value under setting [4] came out at 0; the “No. of Deaths” value under setting [5] is on record as 0; the “No. of Deaths” value under setting [6] was 0. Under setting [7], the “No. of Deaths” value was found to be 4. Also, the T/C under setting [1] amounted to 71; the T/C under setting [2] is reported as 60; the T/C under setting [3] came to 38; the T/C under setting [4] came to 42; the T/C under setting [5] was determined as 69; the T/C under setting [6] amounted to 18. In addition, the T/C under setting [7] is 62.
As to `CC1C(=O)[O][Pt]([NH2])([NH2])[O]C1=O` [Methylmalonatodiammineplatinum(II)], the “No. of Deaths” value was 0 under setting [8]; 0 under setting [9]; 0 under setting [10]; 0 under setting [11]; 3/6 under setting [12]; 6/6 under setting [13]. Besides, the T/C by setting is: under setting [8], 39; under setting [9], 26; under setting [10], 35; under setting [11], 6; under setting [12], 124.
For `CCC1C(=O)[O][Pt]2([NH]CC[NH]2)[O]C1=O` [ethylmalonatoethylenediamineplatinum (II)], the “No. of Deaths” value was 0 under setting [2]; 0 under setting [3]; 0 under setting [4]; 0 under setting [14]; 1 under setting [5]; 0 under setting [15]. Further, the “No. of Deaths” value under setting [6] worked out at 0. Also, the T/C runs as follows: under setting [2], 72; under setting [3], 81; under setting [4], 79; under setting [14], 47; under setting [5], 55; under setting [15], 41. Also, the T/C under setting [6] turned out to be 58.
Turning to `CCC(C(=O)[O-])C(=O)[O-].N.N.[Pt+2]` [ethylmalontodiammineplatinum(II)], the “No. of Deaths” value is recorded as 0 under setting [8]; 0 under setting [9]; 0 under setting [10]; 0 under setting [11]; 0 under setting [12]; 0 under setting [13]. For the same compound, the T/C was found to be 57 under setting [8]; 43 under setting [9]; 47 under setting [10]; 39 under setting [11]; 17 under setting [12]; 16 under setting [13].
Consider `CC(N)CN.O=C([O-])CC(=O)[O-].[Pt+2]` [malonato-1,2 propylenediamineplatinum (II)], for which the “No. of Deaths” value reads like this: under setting [16], 0; under setting [3], 1; under setting [17], 3; under setting [14], 5. The T/C is, setting by setting: under setting [16], 50; under setting [3], 9; under setting [17], 16.
As for `NCCCN.O=C([O-])CC(=O)[O-].[Pt+2]` [malonato-1,3 propylenediamineplatinum (II)], the “No. of Deaths” value was determined as 0 under setting [1], 0 under setting [2], 0 under setting [3] and 1 under setting [4]. Moreover, the T/C runs as follows: under setting [1], 69; under setting [2], 79; under setting [3], 21; under setting [4], 35.
`CN.CN.O=C([O-])CC(=O)[O-].[Pt+2]` [malonatobis(methylamine) platinum (II)]: the “No. of Deaths” value came to 0 under setting [4]; 0 under setting [5]; 0 under setting [6]; 0 under setting [18]; 1 under setting [7]; 1 under setting [19]. Moreover, the T/C is, setting by setting: under setting [4], 58; under setting [5], 53; under setting [6], 28; under setting [18], 25; under setting [7], 17; under setting [19], 19.
In the case of `CC1C(=O)[O][Pt]2([NH]CC[NH]2)[O]C1=O` [methylmalonatoethylenediamineplatinum (II)], the “No. of Deaths” value stood at 0 under setting [8]; 0 under setting [9]; 0 under setting [10]; 0 under setting [11]; 1 under setting [12]; 1 under setting [20]. For the same compound, the T/C under setting [8] was found to be 78; the T/C under setting [9] amounted to 80; the T/C under setting [10] is listed as 51; the T/C under setting [11] was determined as 26; the T/C under setting [12] stood at 20; the T/C under setting [20] is reported as 4.
